System: MDR-TB patient isolate (resistant to isoniazid and rifampin)
Assay type: cell-based, M. tuberculosis
Conditions: gallium about 0 to about 500 μM

`O=[N+]([O-])[O-].O=[N+]([O-])[O-].O=[N+]([O-])[O-].[Ga+3]` [gallium nitrate] was tested, and the “activity against MDR M. tuberculosis strain” value was “retained full activity”.
